As a reminder, the Kd is the free concentration of one partner at which half of the binding sites on the other are occupied at equilibrium, for simple one-to-one binding. The low end stands for a tighter complex, the high end for a looser complex.

Drawing on EP0876402B1, “GROWTH HORMONE SECRETAGOGUE RECEPTOR FAMILY” (MERCK & CO., INC., priority 1995, dated 1997), this text covers Kd and specific binding displaced for 2 compounds.

SMILES strings stand for the structures.

In the test the test system is swine growth hormone secretagogue receptor (GHSR) Type I, clone 7-3, expressed transiently in COS-7 cells. Put plainly: 35S-labeled Compound A binding assay on crude membranes of transfected COS-7 cells.

On to `CC(C)(N)C(=O)N[C@H](COCc1ccccc1)C(=O)N1CCC2(CC1)CN(S(C)(=O)=O)c1ccccc12` [^35S-Compound A], for which, for the setting “saturation binding of ^35S-Compound A, clone 7-3 expressed transiently in COS-7 cells, 20°C, 1 hr”, the Kd is approximately 200 pM.

`CC(C)(N)C(=O)N[C@H](COCc1ccccc1)C(=O)N1CCC2(CC1)CN(S(C)(=O)=O)c1ccccc12` [Compound A] returned a specific binding displaced (displacement of ^35S-Compound A binding by 50 nM unlabeled Compound A, 60 min) of more than 90%.
